“And” between values parts separate entries of the source, which are not always exact repeats. Equal values may be shown once.
Key:
[1] = target: covalently-crosslinked hexameric CA A14C/E45C/W184A/M185A (CA121) (Human immunodeficiency virus type 1 group M subtype B, UniProt P12493, A146C/E177C/M317A/W316A); assay: Thermal shift assay (TSA) on CA hexamer stability; type: binding, HIV-1; settings: 20 µM compound, 7.5 µM CA121
[2] = tested on: HIV-1NL4-3; assay: microbe, parasite or virus in culture; type: cell-based; settings: TZM-GFP cells, HIV-1NL4-3 MOI 0.1, 48 h, mean ± SD; for EC50: Human immunodeficiency virus 1, read-out: EC50 (concentration of compound inhibiting HIV-1 replication by 50%)
[3] = Cytotoxicity assay (XTT) in TZM-GFP cells; type: cell-based; settings: human, mean ± SD, read-out: CC50 (concentration of compound causing 50% cell death)
[4] = Microsomal stability, human liver microsomes; type: in vitro ADME; settings: 0.5 mg/mL microsomal protein, NADPH, 37 °C; for half-life at 1 µM: human, liver microsomes, pH 7.4, 1 µM compound, read-out: Phase I metabolic stability t1/2, HLMs
[5] = Microsomal stability, mouse liver microsomes; type: in vitro ADME; settings: pH 7.4, 1 µM compound, 0.5 mg/mL microsomal protein, NADPH, 37 °C, read-out: Phase I metabolic stability t1/2, MLMs
[6] = Metabolites observed in the microsomal stability assay; type: in vitro ADME; settings: observed in liver microsomal stability assay
[7] = cited from earlier work
[8] = cited from earlier work; remark: listed apart in the source

| Structure (SMILES) | TSA ΔTm (change of CA crosslinked hexamer melting temperature vs DMSO) [1] | EC50 [2] | CC50 at 72 h [3] | EC50 (concentration of compound inhibiting HIV-1 replication by 50%) [2] | half-life at 1 µM [4] | half-life at 1 µM [5] | Metabolite (s) [6] | Phase I metabolic stability t1/2, HLMs ([4]; 1 µM compound) | half-life (t1/2) in human liver microsomes (HLMs) [7] | half-life (t1/2) in mouse liver microsomes (MLMs) [8] |
| --- | --- | --- | --- | --- | --- | --- | --- | --- | --- | --- |
| Cc1[nH]c2ccccc2c1CC(=O)N[C@@H](Cc1ccccc1)C(=O)N1CCc2ccccc21 [Compound 1] | −0.5 °C | > 20 µM | > 100 µM |  |  |  |  |  |  |  |
| O=C(Cc1c[nH]c2ccccc12)N[C@@H](Cc1ccccc1)C(=O)N1CCc2ccccc21 [Compound 2] | −1.0 °C | > 20 µM | > 100 µM |  |  |  |  |  |  |  |
| O=C(Cc1c[nH]c2ccccc12)N[C@@H](Cc1ccccc1)C(=O)N1CCCc2ccccc21 [Compound 3] | 1.8 ± 1.2 °C | > 20 µM | > 50 µM |  |  |  |  |  |  |  |
| Cc1[nH]c2ccccc2c1CC(=O)N[C@H](Cc1ccccc1)c1ncccc1-c1ccccc1 [Compound 4] |  | > 20 µM | < 50 µM | completely inactive |  |  |  |  |  |  |
| O=C(Cn1ncc2ccccc21)N[C@H](Cc1ccccc1)c1ncccc1-c1ccccc1 [Compound 5] | 0.1 ± 0.07 °C | > 20 µM | < 50 µM |  |  |  |  |  |  |  |
| O=C(Cn1cccn1)N[C@H](Cc1ccccc1)c1ncccc1-c1ccccc1 [Compound 6] | 0.3 ± 0.1 °C | > 15 µM | > 50 µM |  |  |  |  |  |  |  |
| O=C(Cn1ncc2ccccc21)N[C@H](Cc1ccccc1)c1ncccc1-c1cccc2cn[nH]c12 [Compound 7] | 0 ± 0 °C | > 20 µM | > 50 µM |  |  |  |  |  |  |  |
| O=C(Cn1cccn1)N[C@H](Cc1ccccc1)c1ncccc1-c1cccc2cn[nH]c12 [Compound 8] | 0.1 ± 0.1 °C | > 20 µM | > 50 µM |  |  |  |  |  |  |  |
| Cc1[nH]c2ccccc2c1CC(=O)N[C@@H](Cc1ccccc1)c1ncccc1-c1ccccc1 [Compound 9] | 4.5 °C and 4.5 ± 0.0 °C | 2.6 ± 0.4 µM | < 50 µM |  | 1.2 ± 0.04 min | 1 ± 0.01 min |  |  |  |  |
| O=C(Cn1ncc2ccccc21)N[C@@H](Cc1ccccc1)c1ncccc1-c1ccccc1 [Compound 10, (S)-2-(1H-indazol-1-yl)-N-(2-phenyl-1-(3-phenylpyridin-2-yl)ethyl)acetamide] |  | 8.8 ± 0.4 µM | < 50 µM | low micromolar |  |  |  |  |  |  |
| O=C(Cn1cccn1)N[C@@H](Cc1ccccc1)c1ncccc1-c1ccccc1 [Compound 11, (S)-N-(2-phenyl-1-(3-phenylpyridin-2-yl)ethyl)-2-(1H-pyrazol-1-yl)acetamide] |  | 5.1 ± 0.7 µM | > 50 µM | low micromolar |  |  |  |  |  |  |
| Cc1[nH]c2ccccc2c1CC(=O)N[C@@H](Cc1ccccc1)c1ncccc1-c1cccc(C#N)c1 [Compound 12] | −0.2 ± 0.07 °C | > 20 µM | > 50 µM |  |  |  |  |  |  |  |
| O=C(Cc1c[nH]c2ccccc12)N[C@@H](Cc1ccccc1)c1ncccc1-c1ccc(Cl)cc1 [Compound 13] | 7.7 ± 0.2 °C | 0.79 ± 0.25 µM | 22 ± 2 µM |  |  |  |  |  |  |  |
| COc1ccc2[nH]cc(CC(=O)N[C@@H](Cc3ccccc3)c3ncccc3-c3ccc(Cl)cc3)c2c1 [Compound 14] | 7.8 ± 0.3 °C | 1.4 ± 0.7 µM | 39 ± 0.2 µM |  | 1.7 ± 0.02 min | 0.9 ± 0.004 min | 15 |  |  |  |
| O=C(Cc1c[nH]c2ccc(O)cc12)N[C@@H](Cc1ccccc1)c1ncccc1-c1ccc(Cl)cc1 [Compound 15] | 8.7 °C and 8.7 ± 0.3 °C | 0.31 ± 0.07 µM | 44 ± 1 µM |  | 27 min | 3.1 ± 0.3 min |  | 27.2 ± 0.5 min |  |  |
| CCn1cc(CC(=O)N[C@@H](Cc2ccccc2)c2ncccc2-c2ccc(Cl)cc2)c2ccccc21 [Compound 16] | 6.6 ± 0.2 °C | 2.7 ± 0.2 µM | 41 ± 0.1 µM |  | 1.4 ± 0.02 min | 1.4 ± 0.02 min | 15 |  |  |  |
| CCn1cc(CC(=O)N[C@@H](Cc2ccccc2)c2ncccc2-c2ccc(Cl)cc2)c2cc(OC)ccc21 [Compound 17] | 5.9 ± 0.2 °C | 3.6 ± 0.2 µM | 48 ± 6 µM |  | 1.3 ± 0.01 min | 1.3 ± 0.005 min | 15 and 14 |  |  |  |
| COc1ccc2[nH]cc(CC(=O)N[C@@H](Cc3ccccc3)c3ncccc3-c3ccc(Br)cc3)c2c1 [Compound 18] | 6.3 ± 0.6 °C | 2.1 ± 0.8 µM | 40 ± 4 µM |  |  |  |  |  |  |  |
| CCn1cc(CC(=O)N[C@@H](Cc2ccccc2)c2ncccc2-c2ccc(Br)cc2)c2ccccc21 [Compound 19] | 6.3 ± 0.1 °C | 3.2 ± 0.3 µM | 41 ± 2 µM |  |  |  |  |  |  |  |
| Cc1[nH]c2ccccc2c1CC(=O)N[C@@H](Cc1ccccc1)c1nccn1-c1ccccc1 [Compound 20] | 3.9 °C and 3.9 ± 0.4 °C | 3.7 ± 0.8 µM | > 50 µM |  | 0.9 ± 0.004 min | 0.7 ± 0.01 min |  |  |  |  |
| Cc1[nH]c2ccccc2c1CC(=O)N[C@@H](Cc1ccccc1)c1nccn1-c1ccc(C#N)cc1 [Compound 21] | 2.2 ± 0.0 °C | 6.6 ± 0.4 µM | > 50 µM |  |  |  |  |  |  |  |
| Cc1[nH]c2ccccc2c1CC(=O)N[C@@H](Cc1ccccc1)c1nccn1-c1ccc(-c2nnn[nH]2)cc1 [Compound 22] | −0.3 ± 0.1 °C | > 20 µM | > 50 µM | no antiviral activity | 1.3 ± 0.01 min | 0.9 ± 0.01 min |  |  |  |  |
| COc1ccc2[nH]cc(CC(=O)N[C@@H](Cc3ccccc3)c3nccn3-c3ccc(Cl)cc3)c2c1 [Compound 23] | 4.0 ± 0.3 °C | 3.3 ± 0.03 µM | 93 ± 2 µM |  |  |  |  |  |  |  |
| COc1ccc2[nH]cc(CC(=O)N[C@@H](Cc3ccccc3)c3nccn3-c3ccc(Br)cc3)c2c1 [Compound 24] | 2.8 ± 0.3 °C | 3.5 ± 0.3 µM | > 100 µM |  |  |  |  |  |  |  |
| COc1ccc2[nH]cc(CC(=O)N[C@@H](Cc3ccccc3)c3nccn3-c3ccc(I)cc3)c2c1 [Compound 25] | 2.7 ± 0.1 °C | 3.3 ± 0.2 µM | > 100 µM |  |  |  |  |  |  |  |
| Cc1[nH]c2ccccc2c1CC(=O)N[C@@H](Cc1ccccc1)C(=O)N(C)c1ccccc1 [PF74, reference compound] | 6.9 °C and 6.9 ± 0.5 °C | 0.7 ± 0.07 µM |  |  |  |  |  |  | less than 1 min | less than 1 min |

Source: PMC8000227 (Viruses, 2021)
